Assay results from patent US12503479B2, “Phospholipid-flavagline conjugates and methods of using the same for targeted cancer therapy” (Cellectar Biosciences, Inc., priority 2018, dated 2025).
Like-named read-outs stand apart in the source and are kept apart here.

Key:
[1] = Plasma stability, mouse
Protocol: (§4) A small amount of molecule was exposed to plasma, and the plasma was then analyzed via HPLC or MS to determine if the molecule was degraded.

[2] = system: NHDF (normal human dermal fibroblasts); test: cells; format: cell-based
[3] = format: in vivo, mice
Protocol: Listed in Table 5 are the doses administered to the mice, and how many mice were alive after treatment (“3/3” indicates 3 out of 3 mice were alive). […] MTD for CLR 1865 was between 5 and 10 mg/kg.

[4] = system: normal human dermal fibroblasts (NHDF); test: Cytotoxicity of parent compound versus PDC, normal cells (Example 8); format: cell-based; conditions: increasing concentrations
Protocol: (§1) A549 (human lung adenocarcinoma) cells and normal human dermal fibroblasts (NHDF) were plated in 96 well dishes overnight. […] The difference between the cytotoxicity of the PDC molecule for tumor cells and that of the normal cells may have indicated a potential to improve the parent molecules therapeutic index.

[5] = system: A549 (human lung adenocarcinoma) cells; test: Cytotoxicity of parent compound versus PDC, tumor cells (Example 8); format: cell-based; conditions: increasing concentrations; for Cytotoxic potency to A549 cells versus NHDF cells (selectivity): FIG. 3
Protocol: as §1

[6] = Plasma stability, human
Protocol: as §4

[7] = system: HCT 116 cells (human colon cancer); format: in vivo; parameters: dose or concentration left out as unconfirmed; conditions: HCT 116 tumor model; three doses; FIG. 9
[8] = system: A375 and A549 cells; test: Levels of FLV3 in cell lysate and growth media (LC/MS); format: cell-based, human
Protocol: FIG. 11 is a graph of concentration versus time for FLV3 detected in the cytosol (normalized to the cytosolic volume) in A375 (human melanoma) and A549 (human lung adenocarcinoma) cell lines.
The levels of FLV3 in cell lysate and growth media were measured using LC/MS. […] Levels of intracellular FLV3 appeared to plateau at 24 hours, while extracellular levels of FLV3 continued to increase.

[9] = system: A549 (human lung adenocarcinoma); test: cells; format: cell-based; conditions: various concentrations; A549 and NHDF; FIG. 8
[10] = system: A549 cells; conditions: A549 cells treated with methyl b-cyclodextrin compared to untreated cells; 5 μμM, 24 hours
[11] = system: Colon CT-26; conditions: SCID Mouse, Adenocarcinoma
Description: (§2) Various cancer cell lines were exposed in vitro and in vivo to a fluorescently labelled PLE (CLR 1501, compound (1)).

[12] = system: Adrenal RL-251; conditions: SCID Mouse, Adenocarcinoma
Description: as §2

[13] = system: Walker-256; conditions: Rat, Carcinosarcoma
Description: as §2

[14] = system: Glioma CNS1; conditions: Rat xenograft
Description: as §2

[15] = system: Prostate LnCap; conditions: Mouse, Adenocarcinoma
Description: as §2

[16] = system: Various cancer cell lines; conditions: in vitro and in vivo; uptake measured continuously for 24 hours
Description: as §2

[17] = system: Lung NCI H-69 (Oat Cell); conditions: SCID Mouse
Description: as §2

[18] = system: Melanoma A-375; conditions: Nude Mouse
Description: as §2

[19] = system: Prostate MatLyLu; conditions: Rat, Adenocarcinoma
Description: as §2

[20] = system: Pancreatic Capan-1; conditions: Nude Mouse, Adenocarcinoma
Description: as §2

[21] = system: Lung A-549 (NSCLC); conditions: SCID Mouse, Adenocarcinoma
Description: as §2

[22] = system: Pancreatic Kras; conditions: Endogenous Mouse, Adenocarcinoma
Description: as §2

[23] = system: Colon-51; conditions: SCID Mouse, Colorectal adenocarcinoma
Description: as §2

[24] = system: TRAMP prostate; conditions: Endogenous Mouse, Adenocarcinoma
Description: as §2

[25] = system: Prostate LuCap; conditions: Mouse, Adenocarcinoma
Description: as §2

[26] = system: Breast MCF-7; conditions: Rat, Adenocarcinoma
Description: as §2

[27] = system: Mammary SCC; conditions: Apc^Min/+ mouse, Squamous cell carcinoma
Description: as §2

[28] = system: Prostate PC-3; conditions: SCID Mouse, Adenocarcinoma
Description: as §2

[29] = system: Cervical; conditions: Endogenous Mouse, Adenocarcinoma
Description: as §2

[30] = system: Colon LS-180; conditions: Nude Mouse, Adenocarcinoma
Description: as §2

[31] = system: Ovarian HTB-77; conditions: Nude Mouse, Adenocarcinoma
Description: as §2

[32] = system: SCC6; conditions: Nude Mouse
Description: as §2

[33] = system: cancer stem cells, normal brain tissue, and normal stem cells; conditions: FIG. 7
Description: as §2

[34] = system: SCC1; conditions: Nude Mouse, Squamous cell carcinoma
Description: as §2

[35] = system: Renal Cell Caki-2; conditions: Nude Mouse (orthotopic), Adenocarcinoma
Description: as §2

[36] = system: Pancreatic c-myc; conditions: Endogenous Mouse, Adenocarcinoma
Description: as §2

[37] = system: Colon HT-29; conditions: SCID Mouse, Colorectal adenocarcinoma
Description: as §2

[38] = system: Breast 4T1; conditions: Endogenous Mouse (orthotopic), Adenocarcinoma
Description: as §2

[39] = system: Retinoblastoma; conditions: Endogenous Mouse, Blastoma
Description: as §2

[40] = system: Renal Cell ACHN; conditions: Nude Mouse (orthotopic), Adenocarcinoma
Description: as §2

[41] = system: Mammary AC; conditions: Apc^Min/+ mouse, Adenocarcinoma
Description: as §2

[42] = system: Sarcoma (Meth-A); conditions: Nude Mouse, Fibrosarcoma
Description: as §2

[43] = system: Pancreatic BXPC3; conditions: Nude Mouse, Adenocarcinoma
Description: as §2

[44] = system: Glioma RG2; conditions: Rat xenograft
Description: as §2

[45] = system: Esophageal; conditions: Endogenous Mouse, Adenocarcinoma
Description: as §2

[46] = system: ColonLS180; conditions: SCID Mouse, Colorectal adenocarcinoma
Description: as §2

[47] = system: Glioma L9; conditions: Rat xenograft
Description: as §2

[48] = system: Adrenal H-295; conditions: SCID Mouse, Adenocarcinoma
Description: as §2

[49] = system: Melanoma; conditions: Mouse, Adenocarcinoma
Description: as §2

[50] = system: Hepatocellular Carcinoma; conditions: Endogenous Mouse, Adenocarcinoma
Description: as §2

[51] = system: Glioma C6; conditions: Rat xenograft
Description: as §2

[52] = system: Colon DLDI; conditions: SCID Mouse, Colorectal adenocarcinoma
Description: as §2

[53] = system: Min Mouse Intestinal; conditions: Endogenous Mouse, Adenocarcinoma
Description: as §2

[54] = system: myeloma cell lines; conditions: FIG. 6
Description: as §2

[55] = system: PC3 (grade IV, human prostate adenocarcinoma) cell lines; conditions: 5 μM, 24 hours at 37° C.
Protocol: PC3 (grade IV, human prostate adenocarcinoma) cell lines were cultured overnight on micro slide VI (Ibidi, Verona, WI). […] The next day after washing with PBS, the cells were co-stained with nucleus stain (Hoechst 33342) and mitochondria marker (Mitotracker®) (Invitrogen, Carlsbad, CA). The cells were observed using Nikon A1R confocal microscope. CLR 1501 was excited and detected using Alexa-Fluor 488 filter, while nucleus stain and mitochondria stain were excited and detected using DAPI filter and Texas-Red filter, respectively.

[56] = system: Normal fibroblast; conditions: 5 μM, 24 hours at 37° C., co-culture with Caki-2 tumor cells
Protocol: (§3) Normal fibroblast and Caki-2 tumor cells (human clear cell renal cell carcinoma) were plated and co-cultured overnight (FIG. 1F). […] The next day cells were washed and co-stained with nucleus stain (Hoescht 33342). CLR 1501 was excited and then detected with an Alexa-Fluor 488 filter.

[57] = system: Caki-2 tumor cells (human clear cell renal cell carcinoma); conditions: 5 μM, 24 hours at 37° C., co-culture with normal fibroblast
Protocol: as §3

[58] = system: benign tissues; conditions: in vivo

COc1ccc([C@@]23Oc4cc(OCCCCNC(=O)OCC(C)(C)SSCCCCCCCCCCCCCCCCCCOP(=O)([O-])OCC[N+](C)(C)C)cc(OC)c4[C@]2(O)[C@H](O)[C@H](C(=O)O)[C@H]3c2ccccc2)cc1 [CLR 1865]
Mouse half-life ([1]; mouse plasma): 3.32 h | Time stable in mouse plasma ([1]; mouse plasma): 3.3 h | Therapeutic Index (TI) (value in parentheses) ([2]; from the NHDF value in parentheses): 37.3 | Therapeutic Index (TI) ([2]; not defined, equals NHDF IC50 over lowest tumor line IC50): 11.64 | Mice alive after treatment ([3]; Dose 0.1 mg/kg): 3/3 | Mice alive after treatment ([3]; Dose 0.25 mg/kg): 3/3 | Mice alive after treatment ([3]; Dose 0.5 mg/kg): 3/3 | Mice alive after treatment ([3]; Dose 1.0 mg/kg): 3/3 | Mice alive after treatment ([3]; Dose 5.0 mg/kg): 3/3 | Mice alive after treatment ([3]; Dose 10.0 mg/kg): 2/3 | In vivo therapeutic index ([3]; mice): ≥ 12.5 | Tolerability compared to FLV3 alone ([3]; mice): excellent improvement in tolerability compared to FLV3 alone | Cytotoxic effect on NHDF cells [4]: almost no effect on NHDF cells until the highest concentrations | Cytotoxic potency in A549 cells relative to the parent molecule [5]: near similar potency to the parent molecule in A549 cells | Cytotoxic potency to A549 cells versus NHDF cells (selectivity) [5]: selectivity for the A549 cells | Human half-life [6]: >6.67 h | Human plasma stability [6]: excellent human plasma stability

COC(=O)[C@H]1[C@@H](O)[C@@]2(O)c3c(OC)cc(OCCCCNC(=O)OCC(C)(C)SSCCCCCCCCCCCCCCCCCCOP(=O)([O-])OCC[N+](C)(C)C)cc3O[C@@]2(c2ccc(OC)cc2)[C@@H]1c1ccccc1 [CLR 1852]
Mouse half-life ([1]; mouse plasma): >6.67 h | Time stable in plasma ([1]; plasma, species not stated): at least 7 hours | Therapeutic Index (TI) [2]: 360 | Therapeutic Index (TI) (value in parentheses) [2]: 915 | Mice alive after treatment ([3]; Dose 0.1 mg/kg): 3/3 | Mice alive after treatment ([3]; Dose 0.25 mg/kg): 3/3 | Mice alive after treatment ([3]; Dose 0.5 mg/kg): 3/3 | Mice alive after treatment ([3]; Dose 1.0 mg/kg): 3/3 | Mice alive after treatment ([3]; Dose 5.0 mg/kg): 3/3 | Mice alive after treatment ([3]; Dose 10.0 mg/kg): 3/3 | Maximum tolerated dose (MTD) ([3]; mice): did not achieve a maximum tolerated dose | Tolerability compared to FLV3 alone ([3]; mice): excellent improvement in tolerability compared to FLV3 alone | In vivo therapeutic index ([3]; mouse, in vivo): at least 25 | Cytotoxic effect on NHDF cells [4]: almost no effect on NHDF cells until the highest concentrations | Time from which tumor volume was reduced compared to vehicle [7]: around 27 days | Cytotoxic potency in A549 cells relative to the parent molecule [5]: near similar potency to the parent molecule in A549 cells | Cytotoxic potency to A549 cells versus NHDF cells (selectivity) [5]: selectivity for the A549 cells | Human half-life [6]: >6.67 h | Human plasma stability [6]: excellent human plasma stability | Time at which levels of intracellular FLV3 plateau [8]: 24 h | Levels of FLV3 in the growth media ([8]; after 24 hours): Moderate levels | Levels of FLV3 in the cell lysate ([8]; after 24 hours, FIG. 11): high levels | Cytotoxic potency compared to FLV3 alone [9]: modest loss in potency compared to FLV3 alone

COc1ccc([C@]23Oc4cc(OCCCCN)cc(OC)c4[C@@]2(O)[C@@H](O)[C@@H](C(=O)O)[C@@H]3c2ccccc2)cc1 [FLV1, reference compound]
Cytotoxic potency to A549 cells versus NHDF cells (selectivity) [5]: near equal potency to the A549 cells as it did to the NHDF cells

C[N+](C)(C)CCOP(=O)([O-])OCCCCCCCCCCCCCCCCCCc1ccc(C2=C3C=CC=[N+]3[B-](F)(F)n3cccc32)cc1 [CLR 1501]
Reduction in uptake after disruption of lipid rafts [10]: 60% | Tumor Uptake [11]: Yes | Tumor Uptake [12]: Yes | Tumor Uptake [13]: Yes | Tumor Uptake [14]: Yes | Tumor Uptake [15]: Yes | Specificity for tumors and cancer cells [16]: specific for tumors and cancer cells | Tumor Uptake [17]: Yes | Tumor Uptake [18]: Yes | Tumor Uptake [19]: Yes | Tumor Uptake [20]: Yes | Tumor Uptake [21]: Yes | Tumor Uptake [22]: Yes | Tumor Uptake [23]: Yes | Tumor Uptake [24]: Yes | Tumor Uptake [25]: Yes | Tumor Uptake [26]: Yes | Tumor Uptake [27]: Yes | Tumor Uptake [28]: Yes | Tumor Uptake [29]: Yes | Tumor Uptake [30]: Yes | Tumor Uptake [31]: Yes | Tumor Uptake [32]: Yes | Uptake into cancer cells versus normal brain tissue and normal stem cells [33]: specific uptake | Tumor Uptake [34]: Yes | Tumor Uptake [35]: Yes | Tumor Uptake [36]: Yes | Tumor Uptake [37]: Yes | Tumor Uptake [38]: Yes | Tumor Uptake [39]: Yes | Tumor Uptake [40]: Yes | Tumor Uptake [41]: Yes | Tumor Uptake [42]: Yes | Tumor Uptake [43]: Yes | Tumor Uptake [44]: Yes | Tumor Uptake [45]: Yes | Tumor Uptake [46]: Yes | Tumor Uptake [47]: Yes | Tumor Uptake [48]: Yes | Tumor Uptake [49]: Yes | Tumor Uptake [50]: Yes | Tumor Uptake [51]: Yes | Tumor Uptake [52]: Yes | Tumor Uptake [53]: Yes | Uptake, myeloma cell lines [54]: uptake | Co-localization with mitochondria [55]: co-localized with mitochondria | Localization in normal fibroblast cells [56]: minimally | Localization in Caki-2 cells [57]: highly localized | Uptake in benign tissues [58]: no uptake was observed
